Series [1] deals with Rattus norvegicus. Description: Antiinflammatory activity in albino Charles-Foster rat assessed as inhibition of carrageenan-induced paw oedema at 50 mg/kg, po measured before 1 hr and after 3 hrs of carrageenan challenge relative to control. It counts as functional. On the technique in general: Carrageenan injected into the paw causes an acute inflammation.
The test system of series [2] is Rattus norvegicus. Description: Antiinflammatory activity in albino Charles-Foster rat assessed as inhibition of carrageenan-induced paw oedema at 5 mg/kg, po measured before 1 hr and after 3 hrs of carrageenan challenge relative to control. It is filed as functional.
Series [3] relates to Rattus norvegicus. Description: Antiinflammatory activity in albino Charles-Foster rat assessed as inhibition of carrageenan-induced paw oedema at 7.5 mg/kg, po measured before 1 hr and after 3 hrs of carrageenan challenge relative to control. It counts as functional.
The test system of series [4] is Rattus norvegicus. Nature of the series: Antiinflammatory activity in albino Charles-Foster rat assessed as inhibition of carrageenan-induced paw oedema at 10 mg/kg, po measured before 1 hr and after 3 hrs of carrageenan challenge relative to control. It is filed as functional.
In series [5] the test system is Mus musculus. Description: Analgesic activity in mouse assessed as protection against phenylquinone-induced writhing at 5 mg/kg, po administered 1 hr before phenylquinone challenge measured for 5 mins relative to controll. It counts as functional.
For series [6], the system named is Mus musculus. Nature of the series: Analgesic activity in mouse assessed as protection against phenylquinone-induced writhing at 7.5 mg/kg, po administered 1 hr before phenylquinone challenge measured for 5 mins relative to controll. It counts as functional. For orientation: An intraperitoneal irritant provokes the stretching counted in writhing tests.
In series [7] the test system is Mus musculus. Description: Analgesic activity in mouse assessed as protection against phenylquinone-induced writhing at 10 mg/kg, po administered 1 hr before phenylquinone challenge measured for 5 mins relative to control. It is filed as functional.
Series [8] deals with Rattus norvegicus. Description: Antiinflammatory activity in albino Charles-Foster rat assessed as inhibition of carrageenan-induced paw oedema at 25 mg/kg, po measured before 1 hr and after 3 hrs of carrageenan challenge relative to control. It counts as functional.
The test system of series [9] is Rattus norvegicus. Description: Antiinflammatory activity in albino Charles-Foster rat assessed as inhibition of carrageenan-induced paw oedema at 100 mg/kg, po measured before 1 hr and after 3 hrs of carrageenan challenge relative to control. It counts as functional.
For series [10], the system named is Mus musculus. Description: Analgesic activity in mouse assessed as protection against phenylquinone-induced writhing at 50 mg/kg, po administered 1 hr before phenylquinone challenge measured for 5 mins relative to control. It counts as functional.
For series [11], the system named is Mus musculus. Description: Analgesic activity in mouse assessed as protection against phenylquinone-induced writhing at 25 mg/kg, po administered 1 hr before phenylquinone challenge measured for 5 mins relative to control. It counts as functional.
In series [12] the test system is Mus musculus. Description: Analgesic activity in mouse assessed as protection against phenylquinone-induced writhing at 100 mg/kg, po administered 1 hr before phenylquinone challenge measured for 5 mins relative to control. It is filed as functional.
Series [13] is described as follows: Toxicity in 24 hrs fasted Albino rat assessed as ulcerogenic activity after 8 hrs. It counts as organism-based. As to conditions: in vivo, read-out: UD50.
Series [14] in a line: Acute toxicity in orally dosed albino mouse after 24 hrs. It is filed as organism-based, albino Charles-Foster. To be noted: in vivo, po, read-out: ALD50.
Series [15] concerns the target Prostaglandin G/H synthase 1 (Homo sapiens) (UniProt P23219). Nature of the series: Inhibition of COX1. More on the design: concentration or dose not given beside the values. To be noted: concentration not given here.
The target in series [16] is T1, Prostaglandin G/H synthase 2 (Homo sapiens) (UniProt P35354).
T1 sequence (whole entry): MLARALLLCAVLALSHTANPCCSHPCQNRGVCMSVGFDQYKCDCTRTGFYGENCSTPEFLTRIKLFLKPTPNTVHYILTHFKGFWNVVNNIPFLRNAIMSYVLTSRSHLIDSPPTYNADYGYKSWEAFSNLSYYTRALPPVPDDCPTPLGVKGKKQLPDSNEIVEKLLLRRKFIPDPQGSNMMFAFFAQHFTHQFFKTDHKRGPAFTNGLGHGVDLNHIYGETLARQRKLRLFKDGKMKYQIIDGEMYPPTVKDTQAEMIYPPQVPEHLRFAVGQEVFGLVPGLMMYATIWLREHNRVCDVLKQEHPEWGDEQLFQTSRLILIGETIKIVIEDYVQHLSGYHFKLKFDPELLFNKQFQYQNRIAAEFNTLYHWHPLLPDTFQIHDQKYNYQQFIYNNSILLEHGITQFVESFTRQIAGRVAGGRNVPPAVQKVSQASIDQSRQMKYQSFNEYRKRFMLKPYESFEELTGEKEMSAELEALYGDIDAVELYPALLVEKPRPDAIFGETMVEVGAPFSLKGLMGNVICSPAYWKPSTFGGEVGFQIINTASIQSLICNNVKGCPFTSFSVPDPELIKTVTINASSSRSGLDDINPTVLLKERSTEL
Description: Inhibition of COX2. As to conditions: concentration not given here. More on the design: concentration or dose not given beside the values.

Sequence of Prostaglandin G/H synthase 1 (Homo sapiens) (P23219 whole entry): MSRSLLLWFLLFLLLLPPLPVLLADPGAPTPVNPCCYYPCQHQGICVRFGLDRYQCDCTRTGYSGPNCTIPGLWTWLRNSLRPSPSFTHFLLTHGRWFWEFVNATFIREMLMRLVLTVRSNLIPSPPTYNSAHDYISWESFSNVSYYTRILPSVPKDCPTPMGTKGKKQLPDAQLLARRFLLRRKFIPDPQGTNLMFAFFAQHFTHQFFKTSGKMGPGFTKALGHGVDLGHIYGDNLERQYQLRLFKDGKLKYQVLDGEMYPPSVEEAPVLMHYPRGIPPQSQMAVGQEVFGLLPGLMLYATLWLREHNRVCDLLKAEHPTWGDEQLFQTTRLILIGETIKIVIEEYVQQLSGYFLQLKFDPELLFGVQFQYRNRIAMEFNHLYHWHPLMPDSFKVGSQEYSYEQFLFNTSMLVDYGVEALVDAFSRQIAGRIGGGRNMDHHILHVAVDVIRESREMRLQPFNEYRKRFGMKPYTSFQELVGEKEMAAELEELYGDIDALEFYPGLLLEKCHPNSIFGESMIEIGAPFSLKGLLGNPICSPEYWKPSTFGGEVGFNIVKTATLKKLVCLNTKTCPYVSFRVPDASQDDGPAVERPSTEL

A word on the inhibition in vivo: it is the percentage by which the read-out fell short of the control. In the case of `COc1ccc2c(c1)c(CC(=O)O)c(C)n2C(=O)c1ccc(Cl)cc1` [INDOMETHACIN], in the series with Rattus norvegicus [1], the inhibition in vivo at 50 mg/kg came out at 52.2%. Further, the inhibition in vivo at 5 mg/kg in the series on Rattus norvegicus [2] is 52.2%. For the same compound, the inhibition in vivo at 7.5 mg/kg in the series with Rattus norvegicus [3] amounted to 63.1%. Moreover, the inhibition in vivo at 10 mg/kg in the series with Rattus norvegicus [4] was found to be 93.2%. In addition, the Activity with Mus musculus [5] came to 41.3%; in the series with Mus musculus [6], 59.25%; in the series on Mus musculus [7], 64.33%.
What is called inhibition is the change of the read-out against control, counted positive when it falls. Consider `O=C1CSC(c2ccccc2Cl)N1c1nnc(CNc2nnc3c4ccccc4nc-3s2)s1` (configuration not stated), for which the inhibition in vivo at 50 mg/kg in the series on Rattus norvegicus [1] worked out at 38.5%. In addition, in the series on Rattus norvegicus [8], the inhibition in vivo at 25 mg/kg was 22.4%. The inhibition in vivo at 100 mg/kg in the series on Rattus norvegicus [9] came to 44.5%. In addition, the Activity in the series on Mus musculus [10] came to 24.67%; with Mus musculus [11], 12.32%; in the series on Mus musculus [12], 36.36%. For the same compound, in series [13], the TD50 at 8 h was 167 mg/kg. For the same compound, in [14], the LD50 at 24 h was > 800 mg/kg. The results for the inhibition in series [15] and in [16] were 43.1% and 45.4%, respectively.
